Assay [1] deals with T1, BaF3-ITD (Homo sapiens, UniProt P36888, cells depend on it, form not given).
T1 sequence (P36888 1-993): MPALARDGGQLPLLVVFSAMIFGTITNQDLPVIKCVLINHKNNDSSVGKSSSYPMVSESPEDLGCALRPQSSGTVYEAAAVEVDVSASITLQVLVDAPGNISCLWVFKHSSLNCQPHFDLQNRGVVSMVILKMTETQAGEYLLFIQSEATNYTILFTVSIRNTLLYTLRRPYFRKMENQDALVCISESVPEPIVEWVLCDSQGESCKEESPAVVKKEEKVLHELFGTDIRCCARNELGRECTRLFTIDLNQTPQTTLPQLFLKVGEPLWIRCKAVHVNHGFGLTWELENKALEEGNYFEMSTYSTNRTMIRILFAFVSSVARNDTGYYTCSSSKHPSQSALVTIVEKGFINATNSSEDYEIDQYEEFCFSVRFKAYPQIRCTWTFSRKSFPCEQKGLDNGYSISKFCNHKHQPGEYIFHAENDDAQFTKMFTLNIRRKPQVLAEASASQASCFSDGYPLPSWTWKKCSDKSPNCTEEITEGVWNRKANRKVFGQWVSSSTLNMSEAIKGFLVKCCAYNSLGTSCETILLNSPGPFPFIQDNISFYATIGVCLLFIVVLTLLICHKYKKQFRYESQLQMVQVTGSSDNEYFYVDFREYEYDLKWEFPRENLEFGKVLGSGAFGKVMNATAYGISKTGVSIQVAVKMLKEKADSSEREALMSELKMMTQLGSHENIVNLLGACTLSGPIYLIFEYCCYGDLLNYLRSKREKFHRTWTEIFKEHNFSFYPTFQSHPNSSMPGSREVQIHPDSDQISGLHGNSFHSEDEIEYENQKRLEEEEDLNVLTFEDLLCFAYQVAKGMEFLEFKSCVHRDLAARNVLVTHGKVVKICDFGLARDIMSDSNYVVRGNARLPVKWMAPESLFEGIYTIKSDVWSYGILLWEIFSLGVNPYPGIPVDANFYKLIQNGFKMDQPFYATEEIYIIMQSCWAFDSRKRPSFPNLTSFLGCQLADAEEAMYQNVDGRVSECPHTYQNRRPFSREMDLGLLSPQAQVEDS
Briefly: MTS cellular proliferation assay. It is filed as cell-based. The settings on record: 72 hour incubation, read-out: Growth inhibitory activity (in vivo EC50 nM). The source says:
(§1) The viability of Flt3 expressing cells can be evaluated using a tetrazolium salt reduction cell-based assay. […] BaF3, both wild type and mutant, as well as transfected strains, MV4-11 and MOLM14 are well-characterized Flt3-dependent humanized or human cell lines which express active Flt3 receptors (see, Yee et al. Blood (2002)100 (8):2941-2949; Levis et al. (2002) 99(11): 3885-3891). These cell lines were used to determine the ability of the compounds provided herein to inhibit Flt3 in intact cells. In each case, and by methods known to those practiced in the art of cell culture, proliferation was measured after 72 hour incubation with the compounds provided herein using a standard MTS protocol (Promega Cat #5430 “Cell Titer 96 Aqueous Non-radioactive Cell Proliferation Assay”).
(§2) In general, cells were plated at 10,000-20,000 cells per well in DMEM medium with 0.5% serum. The compound plate was set up by aliquoting into column 1 of a 96 well 300 ul polypropylene plate, the negative control (DMSO), aliquoting into column 12 the positive control and titrating the test compound in serial dilutions into columns 2-1 l. An aliquot from each well of the compound plate was transferred to the plated cells and then incubated @ […] in 5% CO2. [00538] MTS tetrazolium compound (Owen's reagent) was thawed in a H2O bath. 20 μl of MTS tetrazolium was added to each well of optical plate and the cells were incubated @ 37° C. in 5% CO2 for 2 hours. The absorbance measured at 490 nm using a microplate reader.
Background: Tetrazolium dyes change colour on reduction, which living cells bring about.

The test system of assay [2] is BaF3-FLT3-WT + IL-3. Briefly: MTS cellular proliferation assay. It is filed as cell-based. Conditions: 72 hour incubation, read-out: Growth inhibitory activity (in vivo EC50 nM).
Text: as §1, §2

Assay [3] concerns the target T2, FLT3 D835Y (Homo sapiens, UniProt P36888, D835Y).
T2 construct: purchased Invitrogen (SelectScreen platform)
T2 sequence (P36888 27-993 D835Y): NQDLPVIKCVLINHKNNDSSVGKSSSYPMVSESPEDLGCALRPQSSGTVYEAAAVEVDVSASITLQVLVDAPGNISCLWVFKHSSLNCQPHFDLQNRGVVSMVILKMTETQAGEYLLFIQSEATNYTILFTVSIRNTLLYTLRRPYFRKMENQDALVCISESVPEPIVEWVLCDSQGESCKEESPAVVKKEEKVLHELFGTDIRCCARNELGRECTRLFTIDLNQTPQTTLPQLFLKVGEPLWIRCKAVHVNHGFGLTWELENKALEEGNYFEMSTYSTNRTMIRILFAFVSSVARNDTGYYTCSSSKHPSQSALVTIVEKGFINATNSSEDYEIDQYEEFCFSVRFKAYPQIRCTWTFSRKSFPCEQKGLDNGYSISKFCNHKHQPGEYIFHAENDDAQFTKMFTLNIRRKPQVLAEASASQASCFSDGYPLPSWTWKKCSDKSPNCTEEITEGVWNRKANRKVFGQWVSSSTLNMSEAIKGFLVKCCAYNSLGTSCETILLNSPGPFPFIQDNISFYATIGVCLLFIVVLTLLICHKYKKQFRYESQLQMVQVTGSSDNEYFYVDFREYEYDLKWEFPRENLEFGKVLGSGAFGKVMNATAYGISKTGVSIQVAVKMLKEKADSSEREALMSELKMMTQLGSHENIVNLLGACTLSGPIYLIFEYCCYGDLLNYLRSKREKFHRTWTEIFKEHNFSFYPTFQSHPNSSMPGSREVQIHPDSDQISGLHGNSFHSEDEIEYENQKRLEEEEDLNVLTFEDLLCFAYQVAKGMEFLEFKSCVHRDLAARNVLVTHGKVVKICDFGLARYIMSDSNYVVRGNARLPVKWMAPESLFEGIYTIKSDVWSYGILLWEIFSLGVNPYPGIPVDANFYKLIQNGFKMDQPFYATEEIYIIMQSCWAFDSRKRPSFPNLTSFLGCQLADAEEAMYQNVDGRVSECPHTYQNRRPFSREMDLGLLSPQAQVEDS
Nature of the assay: Kinase EC50 (10 pt curve or estimate, ATP Kmapp). Conditions: from 10 pt curve or estimate based on 1 μm inhibition assay at ATP Kmapp. It is filed as biochemical.

For orientation: EC50 means the midpoint of the concentration-response curve.

Consider `CN(C)CCCCCNc1ccc2ncn3c4ccc5[nH]ncc5c4c(=O)c1c23` [(III)], for which the concentration giving a half-maximal response (EC50) in assay [1] came out at 223 nM. In addition, the IC50 in assay [2] came out at 752 nM.
The matching figures for `CN(C)c1ccc2ncn3c4ccc5[nH]ncc5c4c(=O)c1c23` [(IX)]: 80 nM and over 2000 nM.
The matching figures for `CCN(CC)c1ccc2ncn3c4ccc5[nH]ncc5c4c(=O)c1c23` [(VI)]: 74 nM and 1390 nM.
The matching figures for `CNc1ccc2ncn3c4ccc5[nH]ncc5c4c(=O)c1c23` [(VII)]: 36 nM and 356 nM.
For `CCN(CC)CCNc1ccc2ncn3c4ccc5[nH]ncc5c4c(=O)c1c23` [(VIII)], the EC50 in assay [1] came out at 30 nM. In addition, in assay [2], the IC50 was found to be 341 nM.
For `O=c1c2c(NCCCN3CCOCC3)ccc3ncn(c4ccc5[nH]ncc5c14)c32` [(X)], the EC50 is 35 nM in assay [1] and 0.011 µM in assay [3]. Besides, in assay [2], the IC50 was 492 nM.
`CN(C)CCNc1ccc2ncn3c4ccc5[nH]ncc5c4c(=O)c1c23` [(XII)]: the concentration giving a half-maximal response (EC50) in assay [3] is 0.003 µM.
On the same count and under the same terms, with `CC(CCN1CCOCC1)Nc1ccc2ncn3c4ccc5[nH]ncc5c4c(=O)c1c23` (stereo not shown) [(XVI)] the figure was 0.008 µM; with `CN1CCN(CCCNc2ccc3ncn4c5ccc6[nH]ncc6c5c(=O)c2c34)CC1` [(XVII)], 0.005 µM.
Turning to `CN(C)CCCNc1ccc2ncn3c4ccc5[nH]ncc5c4c(=O)c1c23` [Compound (IV)], the 50% effective concentration (EC50) in assay [1] was 20 nM; in assay [3], 0.012 µM. Further, in assay [2], the IC50 was determined as 6 nM.
For `O=c1c2c(NCCN3CCOCC3)ccc3ncn(c4ccc5[nH]ncc5c14)c32` [Compound (V)], in assay [1], the 50% effective concentration (EC50) is 90 nM. Moreover, the IC50 in assay [2] was determined as 246 nM.
Consider `CCN(CC)CCCNc1ccc2ncn3c4ccc5[nH]ncc5c4c(=O)c1c23` [Compound (XV)], for which the EC50 in assay [3] was 0.004 µM.
For the compound `CCN(CC)CCNc1ccc2ncn3c4ccc(O)cc4c(=O)c1c23` [Symadex, 5-(2-(diethylamino)ethylamino)-8-hydroxy-6H-imidazo[4,5,1-de]acridin-6-one, reference compound], the EC50 was 11.2 nM in assay [1] and 0.024 µM in assay [3]. The IC50 in assay [2] was 13.2 nM.
